# Square brackets hold non-standard residues; d marks the D form. Peptide text beside a SMILES is read from it. NMeA = CN[C@@H](C)C(=O)O
# Legend:
# Assay type in all cases: functional
# Rattus norvegicus [1] = assay: Tested for antiallergic activity by studying the protection of PCA (passive cutaneous anaphylaxis) after ip administration at a dose of 50 mg/kg in rats for four determinations; settings: route intraperitoneal
# Rattus norvegicus [2] = assay: Tested for antiallergic activity by studying mast cell stabilising activity after ip administration at a dose of 50 mg/kg in rats for four determinations; settings: route intraperitoneal
# Rattus norvegicus [3] = assay: Tested for antiallergic activity by studying mast cell stabilising activity after ip administration at a dose of 0.25 mg/kg in rats for four determinations; settings: route intraperitoneal
# Rattus norvegicus [4] = assay: Tested for antiallergic activity by studying the protection of PCA (passive cutaneous anaphylaxis) after ip administration at a dose of 1 mg/kg in rats for four determinations; settings: route intraperitoneal
# Rattus norvegicus [5] = assay: Effective dose required for protection of mast cells using mast cell stabilising assay at a compound concentration of 7.5 mg/kg po
# Rattus norvegicus [6] = assay: Effective dose required for inhibition of PCA at a compound concentration of 7.5 mg/kg po
# Rattus norvegicus [7] = assay: Tested for antiallergic activity by studying the protection of PCA (passive cutaneous anaphylaxis) after ip administration at a dose of 7.5 mg/kg in rats for four determinations; settings: route intraperitoneal
# Rattus norvegicus [8] = assay: Tested for antiallergic activity by studying mast cell stabilising activity after ip administration at a dose of 0.1 mg/kg for five days in rats for four determinations; settings: route intraperitoneal
# Rattus norvegicus [9] = assay: Tested for antiallergic activity by studying mast cell stabilising activity after ip administration at a dose of 0.2 mg/kg for five days in rats for four determinations; settings: route intraperitoneal
# Rattus norvegicus [10] = assay: Tested for antiallergic activity by studying mast cell stabilising activity after ip administration at a dose of 0.5 mg/kg for five days in rats for four determinations; settings: route intraperitoneal
# Rattus norvegicus [11] = assay: Tested for antiallergic activity by studying mast cell stabilising activity after ip administration at a dose of 1.0 mg/kg for five days in rats for four determinations; settings: route intraperitoneal
# Rattus norvegicus [12] = assay: Tested for antiallergic activity by studying mast cell stabilising activity after ip administration at a dose of 2.5 mg/kg for five days in rats for four determinations; settings: route intraperitoneal
# Rattus norvegicus [13] = assay: Tested for antiallergic activity by studying the protection of PCA (passive cutaneous anaphylaxis) after ip administration at a dose of 0.5 mg/kg in rats for four determinations; settings: route intraperitoneal
# Rattus norvegicus [14] = assay: Tested for antiallergic activity by studying the protection of PCA (passive cutaneous anaphylaxis) after ip administration at a dose of 10.0 mg/kg in rats for four determinations; settings: route intraperitoneal
# Rattus norvegicus [15] = assay: Tested for antiallergic activity by studying the protection of PCA (passive cutaneous anaphylaxis) after ip administration at a dose of 2.5 mg/kg in rats for four determinations; settings: route intraperitoneal
# Rattus norvegicus [16] = assay: Tested for antiallergic activity by studying the protection of PCA (passive cutaneous anaphylaxis) after ip administration at a dose of 5.0 mg/kg in rats for four determinations; settings: route intraperitoneal
# Rattus norvegicus [17] = assay: Tested for antiallergic activity by studying the protection of PCA (passive cutaneous anaphylaxis) after ip administration at a dose of 1.0 mg/kg in rats for four determinations; settings: route intraperitoneal
compound,measurement,setting,value
O=C([O-])c1cc(=O)c2c(OCC(O)COc3cccc4oc(C(=O)[O-])cc(=O)c34)cccc2o1.[Na+].[Na+] [CROMOLYN SODIUM],Protection,Rattus norvegicus [1],77%
same,Protection,Rattus norvegicus [2],84%
C[C@@H](N)C(=O)N[C@@H](CC(=O)O)C(=O)N[C@@H](CO)C(=O)N[C@@H](CC(=O)O)C(=O)NCC(=O)N[C@@H](CCCCN)C(=O)O,Protection,Rattus norvegicus [3],61%
same,Protection,Rattus norvegicus [4],64%
CN[C@@H](C)C(=O)N[C@@H](CC(=O)O)C(=O)N[C@@H](CO)C(=O)N[C@@H](CC(=O)O)C(=O)NCC(=O)N[C@@H](CCCCN)C(=O)O (H-[NMeA]DSDGK-OH),Protection,Rattus norvegicus [3],60%
same,Protection,Rattus norvegicus [4],67%
H-AGSDGK-OH,ED50,Rattus norvegicus [5],1 mg/kg
same,ED50,Rattus norvegicus [6],0.6 mg/kg
same,Protection,Rattus norvegicus [7],88%
same,Protection,Rattus norvegicus [8],39%
same,Protection,Rattus norvegicus [3],78%
same,Protection,Rattus norvegicus [9],50%
same,Protection,Rattus norvegicus [10],70%
same,Protection,Rattus norvegicus [11],80%
same,Protection,Rattus norvegicus [12],87%
same,Protection,Rattus norvegicus [13],47%
same,Protection,Rattus norvegicus [14],90%
same,Protection,Rattus norvegicus [4],78%
same,Protection,Rattus norvegicus [15],69%
same,Protection,Rattus norvegicus [16],77%
same,Protection,Rattus norvegicus [17],57%
H-AESDGK-OH,Protection,Rattus norvegicus [3],63%
same,Protection,Rattus norvegicus [4],45%
C[C@H](N)C(=O)N[C@@H](CC(=O)O)C(=O)N[C@@H](CO)C(=O)N[C@@H](CC(=O)O)C(=O)NCC(=O)N[C@@H](CCCCN)C(=O)O,ED50,Rattus norvegicus [5],3 mg/kg
same,ED50,Rattus norvegicus [6],0.9 mg/kg
same,Protection,Rattus norvegicus [7],86%
same,Protection,Rattus norvegicus [8],34%
same,Protection,Rattus norvegicus [3],64%
same,Protection,Rattus norvegicus [9],41%
same,Protection,Rattus norvegicus [10],47%
same,Protection,Rattus norvegicus [11],72%
same,Protection,Rattus norvegicus [12],79%
same,Protection,Rattus norvegicus [13],44%
same,Protection,Rattus norvegicus [14],89%
same,Protection,Rattus norvegicus [4],75%
same,Protection,Rattus norvegicus [15],67%
same,Protection,Rattus norvegicus [16],75%
same,Protection,Rattus norvegicus [17],52%
H-ADSDGK-NH2,Protection,Rattus norvegicus [3],61%
same,Protection,Rattus norvegicus [4],68%

# Source: ChEMBL document CHEMBL1129923, “Antiallergic activity of some novel oligopeptides related to immunoglobulin E” (1997)
